Measured values: ChEMBL document CHEMBL3507680, “University of Dundee, Gates Library screen for HepG2 cell viability”

test: Human HepG2 cell viability assay in 384 well format; assay type: toxicity, cell-based; parameters: dose 125 nL, time 70.5 hour; concentration not given beside the values; details: HepG2 cells, read-out: Inhibition

Row | Structure (SMILES) | cytotoxicity at 70.5 h [%]
1 | CC(C)c1nc(N2CCC(N3CCSCC3)CC2)c2cnn(C)c2n1 | -2.43
2 | CC(NC(=O)c1cc(C(C)C)[nH]n1)C(=O)Nc1ccccc1 (stereo not drawn) | -6.22
3 | Cc1occc1C(=O)N1CCOCC2(CCN(C3CCOCC3)C2)C1 (stereo not drawn) | -19.7
4 | CCn1c(C2CCCNC2)nn(Cc2ccc(C(=O)NC)o2)c1=O (stereo not drawn) | -3.04
5 | COCCN(C)C(C(=O)O)c1ccc2ccccc2c1 (stereo not drawn) | 6.21
6 | CC(NCc1ccc(OCC(N)=O)cc1)c1ccc(Cl)cc1Cl (stereo not drawn) | -5.48
7 | CCc1cnc(CN(C)C2CCN(c3sccc3C#N)C2=O)s1 (stereo not drawn) | 13.4
8 | CCn1nc(CC(C)C)cc1C(=O)N1CCN([C@H]2CCCC[C@@H]2O)CC1 | -2.99
9 | c1cc2c(cc1C[C@@H]1CC[C@H](CN3CCCOCC3)O1)OCO2 | -5.03
10 | Cc1nn(C)c2cn(CC(=O)N3CCN(c4ccccn4)CC3)nc12 | 5.73
11 | O=c1cc(N2CCCC2)cnn1Cc1noc(C2CCCO2)n1 (stereo not drawn) | 7.8
12 | CCC(=O)N1CCC(n2cc(C(C)(C)O)nn2)CC1 | -6.93
13 | CN(Cc1ccc(-n2cccn2)cc1)Cc1ncc[nH]1 | -9.75
14 | CCOCc1ccc(CNC(=O)N2CCC(C(N)=O)C2)cc1 (stereo not drawn) | -2.39
15 | O=C(c1cc(F)ccc1F)C1CCN(C(=O)c2ccco2)CC1 | -3.7
16 | CSc1cc2c(cc1NC(=O)NCCn1ccnc1)OCCO2 | -3
17 | O=c1cc(N2CCCCC2)cnn1CCCn1cccn1 | 4.12
18 | Cc1ncc(CN2CCC(c3ccnn3C)CC2)n1-c1ccccc1 | 2.82
19 | CN(CCc1nc(-c2cccc(Cl)c2)no1)CCn1cccn1 | -5.46
20 | CCN(c1cc(C)cc(C)c1)S(=O)(=O)c1cc(C(=O)O)cs1 | -7.47
21 | CCc1cc(CN(Cc2cccnc2)C2CN3CCC2CC3)on1 (stereo not drawn) | 24.6

Row | Structure (SMILES) | cytotoxicity at 70.5 h [%]
22 | CCC(CC)c1nnc(NC(=O)N2CCC(C(N)=O)CC2)s1 | -0.155
23 | Cc1cc(C)n(CC(C)NCCn2nc(C)c(Cl)c2C)n1 (stereo not drawn) | 3.47
24 | CC(C)NC(=O)CN(C)C(=O)c1c(Cl)c2ccccc2n1C | -0.0324
25 | Cc1cc(C2CCCN(S(=O)(=O)N(C)C)C2)ccn1 (stereo not drawn) | 23.8
26 | Cc1cccnc1C(=O)N1CCCC(c2[nH]ncc2S(C)(=O)=O)C1 (stereo not drawn) | 0.897
27 | Cc1nc(C)n(CC2CCCCN2CC(=O)N(C)Cc2ccco2)n1 (stereo not drawn) | -1.35
28 | CCC(CC)CN1C[C@@H]2OCCN(Cc3cnn(C)c3)[C@@H]2C1 | -3.01
29 | Cc1cnc(C(=O)N(C)Cc2nc(-c3ccccn3)no2)cn1 | 1.35
30 | COc1ccc(CNCC(C)Oc2ccccn2)cc1Br (stereo not drawn) | -18.5
31 | CC(CN1CCOCC1)OC(=O)c1ccccc1I (stereo not drawn) | -15.6
32 | CNc1cc(CCNS(=O)(=O)c2ccccc2)nc(-c2ccccn2)n1 | -14.6
33 | Cc1noc(C)c1C(=O)N1CC[C@H]2C[C@@H](c3ccncn3)O[C@@H]2C1 | -5.05
34 | c1ccc(Oc2nccnc2C2CCN(C3CCOCC3)CC2)cc1 | -7.7
35 | CCc1nc2c(c(NC3CC3)n1)CCN(C(=O)Cc1nonc1C)CC2 | -8.76
36 | CC[C@H]1NCCC[C@]12CCC(=O)N2Cc1ccncc1 | -0.708
37 | Cc1ccc2ncn(C(C)Cn3cccn3)c(=O)c2c1 (stereo not drawn) | -5.52
38 | Cc1ncncc1C(=O)Nc1cnn(CC(=O)NC2CCCC2)c1 | -19.5
39 | CC(=O)N1CCCCCC1C1CCN(c2ncccc2C#N)CC1 (stereo not drawn) | -1.45
40 | OC1(CNCCSCc2ccccc2)CCCNC1 (stereo not drawn) | 18.4
41 | COc1ccc(OCc2nc(C(=O)N3CC(O)C3)co2)cc1 | -8.01
42 | Cc1cc(C)cc(CN2CCN(C(=O)COCC3CCCO3)CC2=O)c1 (stereo not drawn) | -5.03

Row | Structure (SMILES) | cytotoxicity at 70.5 h [%]
43 | CC1(C(=O)NC2CCCC2)CCCN(c2cnccn2)C1 (stereo not drawn) | -6.96
44 | O=C(Cc1cccnc1)NCCSc1ccccc1F | -11.1
45 | COCCn1cc(C(=O)N2CCCC2c2cc(C)no2)ccc1=O (stereo not drawn) | -11.6
46 | CCc1cccc(OC2CN(C(=O)[C@@H](N)[C@@H](C)O)C2)c1 | -8.46
47 | c1ccc(CCN2C[C@@H]3OCCN(c4ncccn4)[C@@H]3C2)cc1 | -9.92
48 | O=C1COC2(CCN(Cc3cccnc3)CC2)CN1c1ccccc1 | -8.85
49 | CN(CCc1ccccc1)C(=O)c1cc(CN2CCC(O)CC2)on1 | -5.34
50 | Cc1cc(CN2CCc3nc(N4CCOCC4)nc(O)c3CC2)c(C)s1 | -0.651
51 | CN1CCNC(Cc2ccc(-c3cccs3)cc2)C1=O (stereo not drawn) | -6.3
52 | CCn1ncc2c1CCCC2NCc1csc(C(C)C)n1 (stereo not drawn) | 0.0472
53 | Cc1ccc(N2CCCC3(COCCN(c4ncccn4)C3)C2)nn1 (stereo not drawn) | 4.86
54 | O=C(NCc1cccs1)[C@H]1CO[C@H]2CCN(C3CCCC3)C[C@H]2C1 | 4.95
55 | COc1ccc(Nc2nc(N)c(C(C)=O)s2)cc1OC | -12.7
56 | CCc1cnc(N2CCCC(CCC(N)=O)C2)nc1 (stereo not drawn) | 17.3
57 | COCC1COCCC12CCN(C(=O)CCc1ccccc1)CC2 (stereo not drawn) | 5.59
58 | CC(C)N(Cc1ccccn1)S(=O)(=O)N1CCCC1c1ccco1 (stereo not drawn) | 3.04
59 | CN(C)CCCN1CC2(CCN(C3CCCOC3)CC2)OC1=O (stereo not drawn) | -6.54
60 | Cc1cc(CNC2CCCN(c3cccnn3)C2)no1 (stereo not drawn) | 5.47
61 | CC(C)CC(=O)N1CCCC2(CC(C(=O)Nc3ccccc3)=NO2)C1 (stereo not drawn) | -0.967
62 | CC(C)(C)Cc1nnc(NCc2ccsc2)o1 | 28.5
63 | CN(C)Cc1ccccc1CN(C)c1ncnc2[nH]ccc12 | -9.22

Row | Structure (SMILES) | cytotoxicity at 70.5 h [%]
64 | CNS(=O)(=O)CCCn1nnc(-c2ccc(F)c(C)c2)n1 | -3.63
65 | CCN1CCC(Cn2ccc3ccc(C(=O)OC)cc3c2=O)C1 (stereo not drawn) | -6.6
66 | CSc1ccc(CN(CCO)C(=O)CCNC(C)=O)cc1 | -14.7
67 | Nc1nc2c(c(NCc3nc(-c4ccncc4)n[nH]3)n1)CCCC2 | -0.22
68 | CCn1cnnc1CCNCc1c[nH]nc1-c1ccc(F)cc1 | 5.79
69 | COC(=O)[C@]12CNC[C@H]1CN(Cc1nc(C)c[nH]1)C2 | 8.04
70 | CCc1cnc(C)nc1NCCN1CCC(O)CC1 | 9.55
71 | Cc1cccc2c1nc(CCO)n2-c1ccc(N)nc1 | -8.34
72 | Cc1noc(CN2CCN(C(C)C(=O)NCc3cccs3)CC2)n1 (stereo not drawn) | 13.6
73 | c1csc(CN2CCCN(c3ncnc4[nH]ccc34)CC2)c1 | -13.6
74 | Cc1c(C2=NS(=O)(=O)N(C)C(C(=O)Nc3ccc(Br)cc3)=C2)cnn1C | 22.2
75 | COc1ccc(C(=O)C2CCCN(c3nccc(N)n3)C2)c(C)c1 (stereo not drawn) | -4.73
76 | Cc1cc(O)nc(C2CCCNC2)n1 (stereo not drawn) | -3.99
77 | COc1ccc2c(c1)OC1(CCN(Cc3cccc(C)c3)CC1)CC2=O | -2.19
78 | Cc1cc(C)n(-c2cncc(NCCNC(=O)CC3CCCC3)n2)n1 | -4.52
79 | Cc1noc(CCCC(=O)N2CCCC2c2ccsc2)n1 (stereo not drawn) | -8.85
80 | CCOCC(=O)N1CCC2(CC1)CC(c1ccccc1)CO2 (stereo not drawn) | -2.96
81 | O=C1CC[C@]2(CC[C@@H](NC(=O)NCc3cccnc3)CC2)N1 | -2.72
82 | COc1ccc(OCC(=O)n2nc(C)c(C)c2C)cc1 | 3.85
83 | CN1CCCC1CCNC(=O)c1ccccc1-n1cc(CN)cn1 (stereo not drawn) | 1.23
